In patent US20190382827A1, “USE OF MICROBIAL METABOLITES FOR TREATING DISEASES” (Yeda Research and Development Co. Ltd., priority 2015, published 2019):
Entries after “also recorded” stand apart in the source; their conditions may differ.

Tested on: DSS colitis
Assay: DSS colitis
Type: in vivo, mouse
Protocol: For IL-18 rescue experiments, recombinant IL-18 (MBL, Cat#B004-2) was injected intraperitoneally at a concentration of 1 μg per mouse for 5 days, and not injected for 2 days prior to DSS treatment. IL-18 injection to Swiss Webster germ-free mice and Nlrp6^−/− mice was performed twice a day for 3 days, while the mice were kept sterile using a cage-autonomous system (Hecht et al., 2014).
Mice were treated with 1.5% (w/v) DSS (M.W.=36,000-50,000 Da; MP Biomedicals) in their drinking water for 7 days followed by regular access to water. The animals were weighed daily and monitored for signs of distress as well as rectal bleeding.
For DSS rescue experiments, mice were receiving taurine in the drinking water prior to DSS treatment in a concentration of 100 mg/ml for 14 days.
Colonoscopy was performed using a high-resolution mouse video endoscopic system (Carl Storz, Tuttlingen, Germany). The severity of colitis was blindly scored using MEICS (Murine Endoscopic Index of Colitis Severity), which is based on five parameters: granularity of mucosal surface; vascular pattern; translucency of the colon mucosa; visible fibrin; and stool consistency (Becker et al., 2006).
On the day of the assay, 4 kDa fluorescein isothiocyanate (FITC)-dextran was dissolved in phosphate buffered saline (PBS) to a concentration of 80 mg ml^−1. Mice were fasted for 4 hours prior to gavage with 150 μl dextran. Mice were anesthetized 3 hours following gavage and blood was collected, centrifuged at 1,000×g for 12 min at 4° C. Serum was collected and fluorescence was quantified at an excitation wavelength of 485 nm and 535 nm emission wavelength.
DNA was extracted from liver samples (using MoBio PowerSoil kit). DNA concentration was calculated using a standard curve of known DNA concentrations from E. coli K12. 16S qPCR using primers identifying different regions of the V6 16S gene was performed using Kappa SYBR fast mix.
Absolute number of bacteria in the samples was then approximated as DNA amount in a sample/DNA molecule mass of bacteria.

[1] = WT mice, DSS colitis, taurine in drinking water
[2] = WT mice, taurine in drinking water for two weeks, then DSS colitis

| Structure (SMILES) | exacerbation of DSS colitis (WT mice concomitantly treated with antibiotics) | DSS colitis (WT mice, histamine treatment) | beneficial effects on DSS colitis (GF WT mice) | beneficial effects on DSS colitis (WT mice treated with broad-spectrum antibiotics) | hepatic bacterial load [1] | systemic FITC-dextran influx [1] | epithelial tight junction integrity (WT mice, DSS colitis, taurine in drinking water, ZO-1 staining) | beneficial effects on DSS colitis (WT mice, taurine administration stopped before induction of DSS colitis) | colitis severity [2] | weight loss [2] | survival (WT mice, taurine in drinking water, DSS) | beneficial effects on DSS colitis (mice lacking either ASC or NLRP6) |
| --- | --- | --- | --- | --- | --- | --- | --- | --- | --- | --- | --- | --- |
| NCCc1c[nH]cn1 [histamine] | prevented | exacerbated |  |  |  |  |  |  |  |  |  |  |
| NCCS(=O)(=O)O [taurine] |  |  | failed to have beneficial effects | failed to have beneficial effects | decreased | reduced | sustained | beneficial effects were also observed | ameliorated; also recorded: reduced | improved | enhanced | failed to have beneficial effects |
